This is an account of results in US8642633B2, “Di-substituted amides for enhancing glutamatergic synaptic responses” (Cortex Pharmaceutical, Inc., priority 2007, dated 2014).

What is called melting point is the temperature, or range, at which the solid turns liquid. As usually defined, the inhibition in vivo is the change of the read-out against control, counted positive when it falls.

Data set [1] relates to d-amphetamine stimulated locomotion in mice. Kind of data set: Inhibition of d-amphetamine stimulated locomotion. The format is in vivo. Particulars: Mus musculus, ip, 18 mpk i.p., d-amphetamine 2 mg/kg. As for the experimental part: B. Behavioral Testing: Inhibition of d-Amphetamine Stimulated Locomotion
The ability of the invention compounds to inhibit d-Amphetamine stimulated locomotor activity was assayed according to the following procedure. Male CD1 mice, 25-30 gm body weight, were brought into the experimental room and allowed at least 30 min of acclimation. Each mouse was placed into the testing enclosure with an infrared beam array that automatically monitors the animal's activity. Mice were habituated in the testing enclosure for 20 min, and then returned to their home cage. Mice were dosed intraperitoneally with test compound in appropriate vehicle 5 minutes before d-Amphetamine injection (2 mpk). Ten minutes after d-Amphetamine injection, mice were tested for locomotor activity for a total of […]. The data was computer collected and expressed as “arbitrary movement units.” All data were analyzed by comparing the groups treated with the test compound to the vehicle control group. The data shown is the % inhibition of hyperactivity induced by acute administration of 2 mg/kg d-amphetamine in mice. The compounds tested produced a statistically significant inhibition of d-amphetamine stimulated locomotion.
Male CD1 mice, 25-30 gm body weight, were brought into the experimental room and allowed at least 30 min of acclimation. Each mouse was placed into the testing enclosure with an infrared beam array that automatically monitors the animal's activity. Mice were habituated in the testing enclosure for 20 min, and then returned to their home cage. Mice were dosed intraperitoneally with test compound in appropriate vehicle 5 minutes before d-Amphetamine injection. Ten minutes after d-Amphetamine injection, mice were tested for locomotor activity for a total of 15 minutes. The data was computer collected and expressed as “arbitrary movement units.” All data were analyzed by comparing the groups treated with the test compound to the vehicle control group.

A further data set relates to AMPA receptor. Briefly: In vivo electrophysiology: field EPSP amplitude in the dentate gyrus of anesthetized animals. Details: species or system rat. Conditions: rat, 10mpk i.p. As for the experimental part:
A. Enhancement of AMPA Receptor Function In Vivo.
Synaptic responses mediated by AMPA receptors are increased according to the method of the invention, using the compounds described herein.
(§1) The electrophysiological effects of the invention compounds were tested in vivo in anesthetized animals according to the following procedures. Animals are maintained under anesthesia by phenobarbital administered using a Hamilton syringe pump. Stimulating and recording electrodes are inserted into the perforant path and dentate gyrus of the hippocampus, respectively. Once electrodes are implanted, a stable baseline of evoked responses are elicited using single monophasic pulses (100 μs pulse duration) delivered at 3/min to the stimulating electrode. Field EPSPs are monitored until a stable baseline is achieved (about 20-30 min), after which a solution of test compound is injected intraperitoneally and evoked field potentials are recorded. Evoked potentials were recorded for approximately 2 h following drug administration or until the amplitude of the field EPSP returns to baseline. In the latter instance, it is common that an iv administration is also carried out with an appropriate dose of the same test compound. Invention compounds were assayed in the in vivo electrophysiology assay described above and data for representative test compounds is shown in column 1 in Table 1.
The electrophysiological effects of invention compounds were tested in vivo in anesthetized animals according to the following procedures.
as §1, with “Animals” for “The electrophysiological effects of the invention compounds were tested in vivo in anesthetized animals according to the following procedures. Animals”, “are” for “were”, “compound.” for “compound. Invention compounds were assayed in the in vivo electrophysiology assay described above and data for representative test compounds is shown in column 1 in Table 1.”

`CN(C(=O)c1ccc2nonc2c1)C1CCC(=O)CC1` [Example 37, N-Methyl-N-(4-oxocyclohexyl)-[2,1,3]-benzoxadiazole-5-carboxamide] had a melting point of 183 to 184 °C. Moreover, the inhibition in vivo at 18 mg/kg in data set [1] was determined as 100%. For the same compound, the “In vivo Electrophysiology: % increase in the amplitude of the field EPSP in the dentate gyrus of rat” value (“In vivo Electrophysiology: % increase” below) in the data set with AMPA receptor amounted to 18%.

For `CN(C(=O)c1ccc2nonc2c1)C1CCC(F)(F)CC1` [Example 40, N-(4,4-Difluorocyclohexyl)-N-methyl-[2,1,3]-benzoxadiazole-5-carboxamide], the melting point lay in the range of 137 to 138 °C. Moreover, the inhibition in vivo at 18 mg/kg in data set [1] came to 84%. In addition, the “In vivo Electrophysiology: % increase” value in the data set on AMPA receptor is on record as 18%.

The compound `CN(C(=O)c1ccc2nonc2c1)C1CC=C(F)CC1` (stereo not drawn) [Example 41, N-(4-fluorocyclohex-3-en-1-yl)-N-methyl-[2,1,3]-benzoxadiazole-5-carboxamide] had a melting point of 117 to 118 °C. Further, in data set [1], the inhibition in vivo at 18 mg/kg was 67%. In addition, the “In vivo Electrophysiology: % increase” value with AMPA receptor is 18%.

As for `CN(C(=O)c1ccc2nonc2c1)[C@H]1CC[C@](C)(O)CC1` [Example 45, N-(trans-4-hydroxy-4-methylcyclohexyl)-N-methyl-[2,1,3]-benzoxadiazole-5-carboxamide], the melting point was 175 to 176 °C. In addition, the inhibition in vivo at 18 mg/kg in data set [1] amounted to 122%. In addition, the “In vivo Electrophysiology: % increase” value in the data set on AMPA receptor is 19%.
